Structures are written as SMILES. Square brackets hold non-standard residues; d marks the D form. Peptide text beside a SMILES is read from it. Ava = NCCCCC(=O)O

Results on two compounds are retold here after patent US20060229433A1, “Modified antiviral peptides with increased activity and cell membrane affinity” (priority 2003, published 2006).

The test system of experiment [1] is HIV-1 NL 4-3. Kind of experiment: Infection of human peripheral blood lymphocytes (PBL) with NL 4-3 strain, p24 ELISA. The class given is cell-based. Here is the method: Peripheral blood lymphocytes from an HIV-1 negative donor were grown as described earlier, maintained in RPMI 1640 with ultraglutamine, supplemented with IL2 (20 μg/ml), penicillin (100 U/ml), streptomycin (100 μg/ml), and 10% heat-inactivated fetal calf serum. Cells were stimulated three days in the medium supplemented with phytohemagglutinin (20 U/ml PHA P, DIFCO, Detroit Mich.).
Samples of 10^6/100 μL PBL cells were preincubated in 96-well microtiter plates in culture medium containing various concentrations of peptides. After a 1 h treatment at 37° C., 100 μl of diluted viral solution of HIV-1 was added. The cells were exposed to the virus for 1 h at 37° C. at a multiplicity of infection of 1000 TCID50 per ml. The cells were washed three times and cultured at […] of medium with the treatment in 24-well plates incubated at 37° in culture medium with the peptides in 5% CO2. The treatment was permanent before virus adsorption, during virus adsorption and after infection. The PBL culture medium was replaced every 3-4 days during three weeks always in the presence of peptide. The cell viability was assessed by cell counts and trypan-blue exclusion assay. The viral production in the culture supernatant was quantified by p24 ELISA test, as described earlier. All the experiments have been done in blind-tests. Tests have been done in duplicate.

Experiment [2] deals with HIV-1 89.6 subtype B dualtropic (X4R5). To be noted: PBMC, Table 5.
In experiment [3] the test system is HIV-1 NL 4-3. The experiment in a line: HIV-1 infection of C8166 cells (syncytia formation, p24 ELISA) with HIV-1 NL 4-3. The conditions noted are these: Table 2. The class given is cell-based. Further details: key: ++, +, (+), (+)− and − represent decreasing numbers of syncitia formed.; ++, +, (+), (+)− and − represent decreasing numbers of syncitia formed.; ++, +, (+), (+)− and − represent decreasing numbers of syncitia formed.; ++, +, (+), (+)− and − represent decreasing numbers of syncitia formed.; ++, +, (+), (+)− and − represent decreasing numbers of syncitia formed. Here is the method:
HIV-1 NL 4-3 isolate (Adachi et al., 1986; Barré-Sinoussi et al., 1983) and highly cytopathic Zairian HIV-1 NDK isolate (Ellrodt et al., 1984) was propagated in permissive CEM cells (Nara et al., 1987). Uninfected CEM and C8166 (Salahuddin et al., 1983) were maintained in RPMI 1640 (R10) with ultraglutamine (cambrex, Vervier, Belgium), penicillin (100 U/ml), streptomycin (100 μg/ml), and 10% heat-inactivated fetal calf serum (Cambrex).
Samples of 3×10^5/100 μL C8166 cells were preincubated in 96-well microtiter plates in culture medium containing various concentrations of peptide. After a 1 h treatment at 37° C., 100 μl of diluted viral solution of HIV-1 was added. The cells were exposed to the virus for 1 h at 37° C. at a multiplicity of infection of 1000 TCID50 per ml. The cells were washed three times and cultured at 3×10^5/ml of R10 with the treatment in 24-well plates incubated at 37° C. C8166 culture medium was replaced at Day-4 post-infection. The treatment was permanent before virus adsorption, during virus adsorption and after infection. Assays on C8166 cells have been performed at least twice and in duplicate. Toxicity was evaluated by daily cell count and trypan-blue exclusion assay. Infection of C8166 T-cells with HIV-1 was assessed by virus-induced cytopathic effects (syncytia formation) and by quantification of cell free p24 viral protein in the culture supernatants. Measurements of HIV-1 p24^gag concentration in the culture supernatants were achieved by ELISA (ALLIANCE® HIV-1 p24 kit, Perkin Elmer, life sciences, USA).

As for `C[C@H](NC(=O)[C@H](CCCNC(=N)N)NC(=O)CNC(=O)[C@@H]1CCCN1C(=O)CN)C(=O)N[C@@H](Cc1ccccc1)C(=O)NCCCCC(=O)O` [SPC3 monomer valeric acid, GPGRAF-NHCH2CH2CH2CH2COOH] (H-GPGRAF[Ava]-OH; N-terminus assumed), the IC50 in the experiment on HIV-1 NL 4-3 [1] (PBL, NL 4-3 strain, Table 4) was found to be 20 nM; in experiment [2] it was 10 nM. Moreover, the IC100 came to 0.1 µM with HIV-1 NL 4-3 [1] (PBL, NL 4-3 strain, Table 4); 0.1 µM in the experiment on HIV-1 NL 4-3 [1] (text b43 on PBL results); 0.5 µM in experiment [2].
As to `C[C@H](NC(=O)[C@H](CCCNC(=N)N)NC(=O)CNC(=O)[C@@H]1CCCN1C(=O)CN)C(=O)N[C@@H](Cc1ccccc1)C(=O)NCCCC[C@H](NC(=O)[C@H](Cc1ccccc1)NC(=O)[C@H](C)NC(=O)[C@H](CCCNC(=N)N)NC(=O)CNC(=O)[C@@H]1CCCN1C(=O)CN)C(=O)NCCCC[C@H](NC(=O)[C@H](CCCCNC(=O)[C@H](Cc1ccccc1)NC(=O)[C@H](C)NC(=O)[C@H](CCCNC(=N)N)NC(=O)CNC(=O)[C@@H]1CCCN1C(=O)CN)NC(=O)[C@H](Cc1ccccc1)NC(=O)[C@H](C)NC(=O)[C@H](CCCNC(=N)N)NC(=O)CNC(=O)[C@@H]1CCCN1C(=O)CN)C(=O)NCCCC[C@H](NC(=O)[C@H](CCCCNC(=O)[C@H](CCCCNC(=O)[C@H](Cc1ccccc1)NC(=O)[C@H](C)NC(=O)[C@H](CCCNC(=N)N)NC(=O)CNC(=O)[C@@H]1CCCN1C(=O)CN)NC(=O)[C@H](Cc1ccccc1)NC(=O)[C@H](C)NC(=O)[C@H](CCCNC(=N)N)NC(=O)CNC(=O)[C@@H]1CCCN1C(=O)CN)NC(=O)[C@H](CCCCNC(=O)[C@H](Cc1ccccc1)NC(=O)[C@H](C)NC(=O)[C@H](CCCNC(=N)N)NC(=O)CNC(=O)[C@@H]1CCCN1C(=O)CN)NC(=O)[C@H](Cc1ccccc1)NC(=O)[C@H](C)NC(=O)[C@H](CCCNC(=N)N)NC(=O)CNC(=O)[C@@H]1CCCN1C(=O)CN)C(=O)NCCC(=O)O` [SPC3, (GPGRAF)8-K4-K2-K-βA-OH, reference compound], the IC50 came to 10 nM in the experiment with HIV-1 NL 4-3 [1] (PBL, NL 4-3 strain, Table 4) and 60 nM in experiment [2]. The IC100 is 0.1 µM in the experiment with HIV-1 NL 4-3 [1] (PBL, NL 4-3 strain, Table 4); 2 µM in the experiment with HIV-1 NL 4-3 [1] (on PBL); 2 µM in the experiment on HIV-1 NL 4-3 [1] (text b43 on PBL results); 0.5 µM in experiment [2]. Also, the results for the “Day 4 syncitia formed” value in the experiment with HIV-1 NL 4-3 [3] (1 μM) and in the experiment on HIV-1 NL 4-3 [3] (5 μM) were “(+)” and “−”, respectively. The “Day 5 syncitia formed” value in the experiment on HIV-1 NL 4-3 [3] (1 μM) is on record as “+”; in the experiment with HIV-1 NL 4-3 [3] (5 μM), “(+)”. For the same compound, the “Day 6 syncitia formed” value was “++” in the experiment with HIV-1 NL 4-3 [3] (1 μM) and “+” in the experiment on HIV-1 NL 4-3 [3] (5 μM). In addition, the “Day 7 syncitia formed” value in the experiment with HIV-1 NL 4-3 [3] (1 μM) and in the experiment on HIV-1 NL 4-3 [3] (5 μM) was “++” throughout.
